From ChEMBL document CHEMBL5215008, “Bioactive Arylnaphthalide Lignans from Justicia depauperata” (J Nat Prod, 2022)
pIC50: −log10 of the molar value. ≈ marks a conversion by molar mass, not a printed value.

Experiments:
Salmonella enterica = assay: Antibacterial activity against Salmonella enterica NR13555 assessed as bacterial growth inhibition incubated overnight by broth microdilution assay; type: functional
KB 3-1 = assay: Cytotoxicity against human KB 3-1 cells assessed as reduction in cell viability; type: functional, cell-based
[1] = Antioxidant activity assessed as inhibition of ABTS radical scavenging activity measured upto 6 mins; type: functional
Pseudomonas aeruginosa = assay: Antibacterial activity against Pseudomonas aeruginosa HM801 assessed as bacterial growth inhibition incubated overnight by broth microdilution assay; type: functional
Klebsiella pneumoniae [2] = assay: Antibacterial activity against Klebsiella pneumoniae clinical isolate assessed as bacterial growth inhibition incubated overnight by broth microdilution assay; type: functional
Salmonella typhi = assay: Antibacterial activity against Salmonella enterica subsp. enterica serovar Typhi CPC assessed as bacterial growth inhibition incubated overnight by broth microdilution assay; type: functional
Klebsiella pneumoniae [3] = assay: Antibacterial activity against Klebsiella pneumoniae NR41388 assessed as bacterial growth inhibition incubated overnight by broth microdilution assay; type: functional
Staphylococcus aureus [4] = assay: Antibacterial activity against Staphylococcus aureus ATCC25923 assessed as bacterial growth inhibition incubated overnight by broth microdilution assay; type: functional
Staphylococcus aureus [5] = assay: Antibacterial activity against Staphylococcus aureus ATCC43300 assessed as bacterial growth inhibition incubated overnight by broth microdilution assay; type: functional

Question: For COC(=O)c1cc2ccc3c(c2c2c1C(=O)c1cc(O)c(O)cc1-2)OCO3, which MIC (Salmonella enterica) is on record?
Answer: 250 µg/mL (≈ 686 µM)

Question: And the pIC50 (KB 3-1)?
Answer: 5.02

Question: And the pIC50 [1]?
Answer: 4.07

Question: Which results are given for CCCCOC1OC(=O)c2cc3ccc4c(c3c(-c3ccc5c(c3)OCO5)c21)OCO4 (stereo not drawn)?
Answer: MIC (Pseudomonas aeruginosa): 250 µg/mL (≈ 595 µM); MIC (Klebsiella pneumoniae [2]): 500 µg/mL (≈ 1190 µM); MIC (Salmonella typhi): 500 µg/mL (≈ 1190 µM); MIC (Klebsiella pneumoniae [3]): 500 µg/mL (≈ 1190 µM); MIC (Staphylococcus aureus [4]): 500 µg/mL (≈ 1190 µM); MIC (Staphylococcus aureus [5]): 125 µg/mL (≈ 297 µM)

Question: Which MIC (Salmonella enterica) does the source give for COC1OC(=O)c2cc3ccc4c(c3c(-c3ccc(O)c(O)c3)c21)OCO4 (stereo not drawn) here?
Answer: 62.5 µg/mL (≈ 171 µM)

Question: What about the MIC (Pseudomonas aeruginosa) of the same molecule?
Answer: 31.3 µg/mL (≈ 85.4 µM)

Question: And the MIC (Klebsiella pneumoniae [2])?
Answer: 62.5 µg/mL (≈ 171 µM)

Question: What about the pIC50 (KB 3-1) of the same molecule?
Answer: 5.39

Question: And the MIC (Salmonella typhi)?
Answer: 31.3 µg/mL (≈ 85.4 µM)

Question: And the MIC (Klebsiella pneumoniae [3])?
Answer: 62.5 µg/mL (≈ 171 µM)

Question: And the MIC (Staphylococcus aureus [4])?
Answer: 62.5 µg/mL (≈ 171 µM)

Question: What about the MIC (Staphylococcus aureus [5]) of the same molecule?
Answer: 62.5 µg/mL (≈ 171 µM)

Question: With GENTAMICIN as the molecule, how does the MIC (Salmonella enterica) read?
Answer: 0.07 µg/mL

Question: And the MIC (Pseudomonas aeruginosa)?
Answer: 0.05 µg/mL

Question: What about the MIC (Klebsiella pneumoniae [2]) of the same molecule?
Answer: 0.03 µg/mL

Question: And the MIC (Salmonella typhi)?
Answer: 0.05 µg/mL

Question: And the MIC (Klebsiella pneumoniae [3])?
Answer: 0.07 µg/mL

Question: What about the MIC (Staphylococcus aureus [4]) of the same molecule?
Answer: 0.03 µg/mL

Question: And the MIC (Staphylococcus aureus [5])?
Answer: 0.07 µg/mL

Question: For C=CCOC(=O)c1cc2ccc3c(c2c(-c2ccc4c(c2)OCO4)c1C=O)OCO3, which MIC (Pseudomonas aeruginosa) is on record?
Answer: 125 µg/mL (≈ 309 µM)

Question: And the MIC (Klebsiella pneumoniae [2])?
Answer: 500 µg/mL (≈ 1240 µM)

Question: What about the MIC (Salmonella typhi) of the same molecule?
Answer: 500 µg/mL (≈ 1240 µM)

Question: And the MIC (Staphylococcus aureus [5])?
Answer: 500 µg/mL (≈ 1240 µM)

Question: With Cc1c(C)c2c(c(C)c1O)CCC(C)(C(=O)O)O2 (stereo not drawn) [TROLOX] as the molecule, how does the pIC50 [1] read?
Answer: 4.17

Question: For COc1cc([C@@H](O)[C@@H]2CO[C@H](c3ccc(O)c(OC)c3)[C@H]2CO)ccc1O [TANEGOOL], which MIC (Salmonella enterica) is on record?
Answer: 250 µg/mL (≈ 664 µM)

Question: And the MIC (Pseudomonas aeruginosa)?
Answer: 15.6 µg/mL (≈ 41.4 µM)

Question: What about the MIC (Klebsiella pneumoniae [2]) of the same molecule?
Answer: 62.5 µg/mL (≈ 166 µM)

Question: And the MIC (Salmonella typhi)?
Answer: 31.3 µg/mL (≈ 83.2 µM)

Question: And the MIC (Klebsiella pneumoniae [3])?
Answer: 500 µg/mL (≈ 1330 µM)

Question: And the pIC50 [1]?
Answer: 4.39

Question: And the MIC (Staphylococcus aureus [4])?
Answer: 500 µg/mL (≈ 1330 µM)

Question: What about the MIC (Staphylococcus aureus [5]) of the same molecule?
Answer: 125 µg/mL (≈ 332 µM)

Question: With COc1ccc(C[C@H]2NC(=O)/C=C/C[C@@H]([C@H](C)[C@H]3O[C@@H]3c3ccccc3)OC(=O)[C@H](CC(C)C)OC(=O)C(C)(C)CNC2=O)cc1Cl [CRYPTOPHYCIN 52] as the molecule, how does the pIC50 (KB 3-1) read?
Answer: 10.89
